Assays:
[1] = target: GCN2 (Homo sapiens, UniProt Q9P2K8); assay: GCN2 enzyme assay (TR-FRET Lanthascreen, GFP-eIF2alpha substrate); assay type: biochemical; conditions: class symbols
Protocol: APCI-MS (atmospheric pressure chemical ionisation-mass spectrometry) (M+H)^+. • Mass spectrometry (MS): EI (electron impact ionisation) M^+ • FAB (fast atom bombardment) (M+H)^+ • ESI (electrospray ionisation) (M+H)^+ • m.p.=melting point • LCMS Method: • Column: ZORBAX SB-C8 30*4.6 mm, 3.5 um • Mobile Phase A: Water+0.03% TFA • Mobile Phase B: ACN+0.05% TFA • Gradient: 5-95% B in 2.5 minutes • Flow: 2.0 mL/min • Wavelength: UV1:220 nm, UV2:254 nm • Mass Scan: 100-900 Da GCN2: Assay Principle & Conditions
This assay can quantificate the activity of the serin kinase GCN2 (general control non-derepressible-2).
This kinase is involved in the stress metabolism of cells. It is activated upon starvation (amino acid depletion). Its natural substrate is eIF2a (eukaryotic initiation factor 2 alpha subunit), a translation factor, which gets activated (phosphorylated) by GCN2 in case of an amino acid bottleneck in the cells. This in turn leads to a halt of the protein synthesis. Inhibition of GCN2 results in stopping this mechanism: The cell can not stop protein production upon “starvation” stress.
The assay is run in two steps: the enzymatic reaction and the detection step. In the first step GCN2 is incubated with 10 μM ATP and 80 nM of the GFP-labelled substrate eIF2alpha at room temperature.
The enzymatic reaction is stopped by addition of EDTA. The amount of phosphorylated eIF2alpha is determined by TR-FRET (Lanthascreen): A complex is formed consisting of antibody and GFP labelled phospho-eIF2a, which allows a FRET upon exitation at 340 nm.
The GCN2-activity is directly proportional to the ratio of fluorescence units at the emission wavelength 520 nm (phosphopeptide-sensitive wavelength=emission of GFP) to the units at 495 nm (reference wavelength=emission of Terbium-chelate).
Final Concentrations in the Enzymatic Reaction

[2] = target: SYK (Homo sapiens, UniProt P43405); assay: SYK flash plate assay; assay type: biochemical; conditions: class symbols; read-out: IC50 SYK (enzyme assay)
Protocol: The kinase assay is performed either as 384-well Flashplate assay (for e.g. Topcount measurement) or as 384-well Image-Flashplate assay (for LEADseeker measurement). • 2.5 nM SYK, 400 nM Biotin-Aha-Aha-KEDPDYEWPSAKK • and 10 μM ATP (spiked with 0.3 μCi 33P-ATP/well) are incubated in a total volume of 50 μl (60 mM Hepes, 10 mM MgCl2, 1.2 mM Dithiothreitol, 0.02% Brij35, 0.1% BSA, pH 7.5) with or without test compound for 1 hours at 30° C. The reaction is stopped with 25 μl 200 mM EDTA. After 30 Min at 30° C. the liquid is removed and each well washed thrice with 100 μl 0.9% sodium chloride solution. Non-specific reaction is determined in presence of 0.1 μM Staurosporine. Radioactivity is measured with Topcount (when using Flashplates) or with LEADseeker (when using Image-Flashplates) respectively. Results (e.g. IC50-values) are calculated with program tools provided by the IT-department (e.g. Symyx Assay Explorer, Genedata Screener). In vivo Assays CIA

Chain of GCN2 (Q9P2K8 whole entry, species assumed): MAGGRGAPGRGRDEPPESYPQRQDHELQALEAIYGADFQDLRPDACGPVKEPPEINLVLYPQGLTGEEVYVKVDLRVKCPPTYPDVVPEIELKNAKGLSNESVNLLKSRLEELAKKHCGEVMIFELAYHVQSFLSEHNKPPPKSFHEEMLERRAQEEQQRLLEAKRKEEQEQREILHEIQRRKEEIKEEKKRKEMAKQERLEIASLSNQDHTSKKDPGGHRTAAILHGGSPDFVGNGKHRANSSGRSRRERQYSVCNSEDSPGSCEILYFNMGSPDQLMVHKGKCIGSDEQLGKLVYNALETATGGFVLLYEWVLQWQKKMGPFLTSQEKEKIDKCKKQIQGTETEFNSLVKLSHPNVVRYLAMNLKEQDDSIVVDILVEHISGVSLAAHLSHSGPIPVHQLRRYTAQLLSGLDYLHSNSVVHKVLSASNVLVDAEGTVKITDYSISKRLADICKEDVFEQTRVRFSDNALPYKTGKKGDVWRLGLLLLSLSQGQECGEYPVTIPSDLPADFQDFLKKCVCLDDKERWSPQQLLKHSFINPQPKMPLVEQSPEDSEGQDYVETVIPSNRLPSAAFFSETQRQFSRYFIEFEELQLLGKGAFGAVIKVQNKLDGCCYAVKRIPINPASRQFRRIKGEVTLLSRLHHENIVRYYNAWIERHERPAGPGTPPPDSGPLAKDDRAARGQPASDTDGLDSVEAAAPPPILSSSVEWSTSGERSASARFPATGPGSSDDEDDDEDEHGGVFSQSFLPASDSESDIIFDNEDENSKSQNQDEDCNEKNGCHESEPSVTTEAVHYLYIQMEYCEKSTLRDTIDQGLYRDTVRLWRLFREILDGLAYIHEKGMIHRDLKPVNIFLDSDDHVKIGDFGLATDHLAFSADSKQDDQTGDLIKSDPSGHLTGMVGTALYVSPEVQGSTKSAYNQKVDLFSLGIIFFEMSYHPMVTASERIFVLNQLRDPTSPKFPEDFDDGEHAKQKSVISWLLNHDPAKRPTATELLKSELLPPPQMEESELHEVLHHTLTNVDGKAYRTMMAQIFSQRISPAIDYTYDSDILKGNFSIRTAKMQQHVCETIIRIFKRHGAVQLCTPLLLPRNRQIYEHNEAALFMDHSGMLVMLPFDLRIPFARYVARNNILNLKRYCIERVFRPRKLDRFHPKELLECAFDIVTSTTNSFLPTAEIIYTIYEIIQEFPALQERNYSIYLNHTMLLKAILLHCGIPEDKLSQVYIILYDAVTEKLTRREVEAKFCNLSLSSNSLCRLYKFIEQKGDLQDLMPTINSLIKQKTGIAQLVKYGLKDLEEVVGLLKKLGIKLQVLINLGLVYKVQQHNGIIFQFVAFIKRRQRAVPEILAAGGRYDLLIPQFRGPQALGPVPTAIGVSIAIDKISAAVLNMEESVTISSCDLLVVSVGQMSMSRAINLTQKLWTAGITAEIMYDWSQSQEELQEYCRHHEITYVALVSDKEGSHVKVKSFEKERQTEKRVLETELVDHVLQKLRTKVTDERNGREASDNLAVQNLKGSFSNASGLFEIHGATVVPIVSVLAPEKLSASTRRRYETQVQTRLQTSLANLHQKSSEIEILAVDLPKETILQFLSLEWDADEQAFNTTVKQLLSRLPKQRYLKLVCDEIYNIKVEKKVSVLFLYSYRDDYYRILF

Row | SMILES | IC50 [1] [µM] | IC50 [2] [µM]
1 | CN1CC(=O)Nc2cccc(c2)Nc2ncc(F)c(n2)Nc2ccc3c(c2)NC(=O)C(C)(O3)C1=O (racemic) [Compound 15] | 0.3 to 3 | < 0.3
2 | CC12Oc3ccc(cc3NC1=O)Nc1nc(ncc1F)Nc1cccc(c1)CCNC2=O (stereo not drawn) [Compound 12] | 3 to 50 | 3 to 50
3 | CC12CCOC(=O)NCc3cccc(c3)Nc3ncc(F)c(n3)Nc3ccc(c(c3)NC1=O)O2 (stereo not drawn) [Compound 9] |  | < 0.3
4 | CC12CCOC(=O)Nc3cccc(c3)Nc3ncc(F)c(n3)Nc3ccc(c(c3)NC1=O)O2 (stereo not drawn) [Compound 6] |  | < 0.3
5 | CN1CC(=O)Nc2cccc(c2)Nc2ncc(F)c(n2)Nc2ccc3c(c2)NC(=O)[C@@](C)(O3)C1=O (single isomer, unassigned) [Compound 16] | 3 to 50 | 0.3 to 3
6 | CN1CC(=O)Nc2cccc(c2)Nc2ncc(F)c(n2)Nc2ccc3c(c2)NC(=O)[C@](C)(O3)C1=O (single isomer, unassigned) [Compound 17] | 0.3 to 3 | < 0.3

Further lines, results first:

Row | IC50 [1] [µM] | IC50 [2] [µM] | SMILES
7 | 0.3 to 3 | 3 to 50 | COc1cc2ccc1OCCCCNC(=O)C1(C)Oc3ccc(cc3NC1=O)Nc1nc(ncc1F)N2 (stereo not drawn) [Compound B12]
8 |  | 3 to 50 | CC12Oc3ccc(cc3NC1=O)Nc1nc(ncc1F)Nc1cccc(c1)NC(=O)N1CCC[C@H]1C(=O)NCCCNC2=O (stereo partly drawn) [Compound B17]
9 |  | < 0.3 | COc1cc2cc(c1)NC(=O)CN(C)C(=O)C1(C)Oc3ccc(cc3NC1=O)Nc1nc(ncc1F)C2 (stereo not drawn) [Compound B2]
10 | 3 to 50 | 0.3 to 3 | COc1cc2ccc1OCCCCNC(=O)[C@@H](Cc1ccccc1)NC(=O)[C@]1(C)Oc3ccc(cc3NC1=O)Nc1nc(ncc1F)N2 [Compound B20]
11 | 0.3 to 3 |  | CC12Oc3ccc(cc3NC1=O)Nc1nc(ncc1F)Nc1cccc(c1)S(=O)(=O)NCCC(=O)NCCCNC2=O (stereo not drawn) [Compound B18]
12 |  | 3 to 50 | COc1cc2c3cc1Nc1ncc(F)c(n1)Nc1ccc4c(c1)NC(=O)C(C)(O4)C(=O)NCCN(C)CC(=O)N3CC2 (stereo not drawn) [Compound B7]
13 |  | 0.3 to 3 | CC12Oc3ccc(cc3NC1=O)Nc1nc(ncc1F)Nc1ccc(cc1)OCCC(=O)NCCCNC2=O (stereo not drawn) [Compound B15]
14 | 0.3 to 3 | 3 to 50 | COc1cc2ccc1OCCCNC(=O)C1(C)Oc3ccc(cc3NC1=O)Nc1nc(ncc1F)N2 (stereo not drawn) [Compound B11]
15 |  | 0.3 to 3 | CC12Oc3ccc(cc3NC1=O)Nc1nc(ncc1F)Nc1ccc(cc1)OCCCC(=O)NCCCNC2=O (stereo not drawn) [Compound B16]
16 |  | 0.3 to 3 | COc1cc2ccc1OCCNC(=O)[C@H](Cc1ccccc1)NC(=O)[C@]1(C)Oc3ccc(cc3NC1=O)Nc1nc(ncc1F)N2 [Compound B25]
17 |  | 3 to 50 | CN1CC(=O)N(C)c2cccc(c2)Nc2ncc(F)c(n2)Nc2ccc3c(c2)NC(=O)C(C)(O3)C1=O (stereo not drawn) [Compound B1]
18 | 0.3 to 3 | 0.3 to 3 | COc1cc2cc(c1)C(=O)NCCNC(=O)C1(C)Oc3ccc(cc3NC1=O)Nc1nc(ncc1F)N2 (stereo not drawn) [Compound B23]
19 |  | 0.3 to 3 | COc1ccc2cc1Nc1ncc(F)c(n1)Nc1ccc3c(c1)NC(=O)C(C)(O3)C(=O)NCCNC2=O (stereo not drawn) [Compound B19]

Source: patent US9073944B2, “Cyclic diaminopyrimidine derivatives” (Merck Patent GmbH, priority 2012, dated 2015)
